Test results taken from PubChem BioAssay (NCI).
Where “and” joins values, the source holds several entries; their conditions need not be identical. Equal entries are not always repeated.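 The compound was tested at five concentrations on cells cultured in 96-well plates, with a 48-hour exposure period. Here, GI50 denotes the concentration required for 50% inhibition of growth. TGI: concentration producing complete growth inhibition.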

What was measured:
Assay in all cases: DTP human tumour cell line panel, 48 h
RXF 393 renal = system: RXF 393 renal
SNB-75 CNS = system: SNB-75 CNS
SF-539 CNS = system: SF-539 CNS
MALME-3M melanoma = system: MALME-3M melanoma
HL-60(TB) leukemia = system: HL-60(TB) leukemia
NCI-H522 lung = system: NCI-H522 lung
CAKI-1 renal = system: CAKI-1 renal
HCT-116 colon = system: HCT-116 colon
NCI-H23 lung = system: NCI-H23 lung
A498 renal = system: A498 renal

Compound	GI50 (RXF 393 renal)	TGI (RXF 393 renal)	GI50 (SNB-75 CNS)	TGI (SNB-75 CNS)	GI50 (SF-539 CNS)	TGI (SF-539 CNS)	GI50 (MALME-3M melanoma)	TGI (MALME-3M melanoma)	GI50 (HL-60(TB) leukemia)	TGI (HL-60(TB) leukemia)	GI50 (NCI-H522 lung)	TGI (NCI-H522 lung)	GI50 (CAKI-1 renal)	TGI (CAKI-1 renal)	GI50 (HCT-116 colon)	TGI (HCT-116 colon)	GI50 (NCI-H23 lung)	TGI (NCI-H23 lung)	GI50 (A498 renal)	TGI (A498 renal)
O=C(Nc1cccc(-n2cc(-c3ccncc3)c(-c3ccc(O)c(Cl)c3)n2)c1)c1ccc(N2CCOCC2)c(C(F)(F)F)c1	0.283 µM	2.25 µM	0.745 µM	> 50 µM	1.04 µM	> 50 µM	2.8 µM	> 50 µM	1.2 µM	3.15 µM	2.22 µM	> 50 µM	2.24 µM	> 50 µM	2.35 µM	> 50 µM	3.95 µM	> 50 µM	> 50 µM	> 50 µM
O=C1C2C3CCC(C2C(=O)N1CO)C1C2C(=O)N(CO)C(=O)C2C31 (stereo not drawn)		> 68.6 µM		> 100 µM		> 85.3 µM		> 100 µM		31.1 µM		> 100 µM		> 100 µM		> 54.2 µM		> 100 µM		> 100 µM
CN1CCN(CCCN2c3ccccc3Sc3ccc(C(F)(F)F)cc32)CC1	1.78 µM and 10 µM and 4.08 µM	4.62 µM and 23.1 µM and 15.5 µM	6.4 µM	22.7 µM and 16.8 µM and 20.8 µM	1.94 µM	4.12 µM and 18.6 µM and 20.1 µM	1.69 µM	3.28 µM and 3.66 µM and 6.98 µM	2.78 µM	4.92 µM and 17.7 µM and 22.7 µM	1.87 µM and 4.05 µM and 13 µM	3.5 µM and 17.8 µM and 26.1 µM	1.55 µM	3.36 µM and 22.4 µM and 23 µM	1.78 µM	3.26 µM and 17.5 µM and 20.3 µM	3.29 µM	14.1 µM and 26.7 µM and 27.7 µM	2.4 µM	12.9 µM and 29.5 µM and 26.7 µM
N#CC(C#N)=Cc1ccc(Oc2ccccc2)cc1		> 100 µM		> 91.7 µM		40.4 µM		45.3 µM		55.1 µM		61.6 µM		> 100 µM		44 µM		52.2 µM		> 100 µM
N#C/C(=C\c1ccc([N+](=O)[O-])s1)c1nc2cc(Br)ccc2s1	0.325 µM	2.06 µM	0.355 µM		0.236 µM	0.638 µM	0.134 µM	0.291 µM	3.82 µM	> 100 µM	0.206 µM	0.539 µM	0.218 µM	1.01 µM	0.0713 µM	0.388 µM	0.279 µM	1.35 µM	8.05 µM	> 100 µM
CC(=O)OCc1c(C)c2ccccc2n1C(C)=O		75.3 µM		> 100 µM		> 100 µM		73.7 µM		66.9 µM		39.2 µM		> 100 µM		> 100 µM		> 100 µM		> 100 µM
O=c1cc(-c2ccccc2)nc2cc(-c3ccco3)[nH]n12	18.9 µM	> 100 µM	12.5 µM	> 100 µM	13.3 µM	78.9 µM	3.47 µM	94.5 µM	11.1 µM	> 100 µM	6.77 µM	40.7 µM	5.21 µM	55.4 µM	15.7 µM	> 100 µM	13.2 µM	89.1 µM	3.6 µM	28.6 µM
CCOC(=O)NN(C(=O)OCC)C(C(=O)c1ccc(Cl)cc1)=C1NCCN1		> 100 µM		> 100 µM		> 100 µM		> 100 µM		> 100 µM		> 100 µM		> 100 µM		> 100 µM		> 100 µM		> 100 µM
COc1ccc2c(c1)c(-c1nc(-c3cn(C)c4ncccc34)cs1)cn2CCCCN1CCOCC1	1.2 µM	2.65 µM	0.873 µM	2.67 µM	1.56 µM	3.02 µM	1.65 µM	3.41 µM	1.84 µM	4.37 µM	1.77 µM	3.81 µM	1.39 µM	2.89 µM	1.8 µM	3.91 µM	2.02 µM	5.58 µM	0.164 µM	1.78 µM
COc1cc(C(=O)Nc2cc(O)c(C/C=C(\C)CCC=C(C)C)c(O)c2)cc2c1O[C@]1(C)CC[C@@H](O)C(C)(C)[C@H]1C2	0.00419 µM	0.0809 µM and 0.17 µM	0.00898 µM and < 0.0111 µM	7.56 µM	0.00623 µM	0.411 µM and 0.658 µM	0.3 µM and 1.24 µM	7.46 µM	0.00716 µM and 0.0699 µM		7 µM and 1.29 µM	11.6 µM	0.0394 µM	11.9 µM	0.143 µM and 0.185 µM	7.11 µM	1.61 µM and 2.09 µM	19.7 µM	0.0623 µM and 0.0258 µM	1.72 µM and 0.889 µM
Nc1ncnc2c1c(C(=O)NO)cn2C1OC(CO)C(O)C1O (stereo not drawn)	0.331 µM		0.509 µM	8.04 µM	0.551 µM	3.01 µM	0.388 µM	3.11 µM	0.158 µM	0.457 µM	0.435 µM	4.62 µM	0.213 µM	2.5 µM	0.175 µM	> 23.8 µM	0.329 µM	2.89 µM	0.915 µM	6.9 µM
O=C(Nc1ccc(O)c(NS(=O)(=O)c2ccc(F)cc2)c1)c1ccc(-c2ccccc2)cc1	2.53 µM	10.7 µM	2.68 µM	15.7 µM	8.93 µM	22.4 µM	11.5 µM	23.9 µM	1.4 µM	5.34 µM	2.27 µM	8.7 µM	5.65 µM	32.6 µM	5.12 µM	20.7 µM	10.5 µM	24.3 µM	13.4 µM	26.7 µM
Cc1nc2sc(C(=O)Nc3cccc(Cl)c3C)c(N)c2cc1C(=O)c1ccccc1	0.198 µM		0.121 µM		0.159 µM	0.915 µM	0.811 µM	> 50 µM	0.147 µM		0.205 µM		0.214 µM	> 50 µM	0.22 µM	> 50 µM	1.14 µM	> 50 µM	0.124 µM	1.64 µM
CS(=O)(=O)c1ccc(-c2[nH]c3ccc(F)cc3c2/C=N/NC(N)=S)cc1	1.21 µM	63.1 µM	1.85 µM	> 100 µM	1.3 µM	> 100 µM	7.83 µM	41 µM	0.396 µM	5.05 µM	0.466 µM	3.75 µM	3.86 µM	> 100 µM	0.437 µM	> 100 µM	4.66 µM	> 100 µM	0.347 µM	5.18 µM
